Data published in patent US20260055097A9, “NRF2 PROTEIN DEGRADERS” (Ganymede Oncology, Inc., priority 2022, published 2026).
Read-outs that look alike come from different tables or passages of the source.

Key:
[1] = biological target: T1, Nrf2 (Homo sapiens, UniProt Q16236); assay: Nrf2 degradation in A549 HiBiT-Nrf2 cells, Nano-Glo HiBiT lytic detection (HiBiT readout); assay type: cell-based; design: host or cells: A549 HiBiT-Nrf2 cells (engineered line bought from Promega)
T1 sequence (Q16236 1-605): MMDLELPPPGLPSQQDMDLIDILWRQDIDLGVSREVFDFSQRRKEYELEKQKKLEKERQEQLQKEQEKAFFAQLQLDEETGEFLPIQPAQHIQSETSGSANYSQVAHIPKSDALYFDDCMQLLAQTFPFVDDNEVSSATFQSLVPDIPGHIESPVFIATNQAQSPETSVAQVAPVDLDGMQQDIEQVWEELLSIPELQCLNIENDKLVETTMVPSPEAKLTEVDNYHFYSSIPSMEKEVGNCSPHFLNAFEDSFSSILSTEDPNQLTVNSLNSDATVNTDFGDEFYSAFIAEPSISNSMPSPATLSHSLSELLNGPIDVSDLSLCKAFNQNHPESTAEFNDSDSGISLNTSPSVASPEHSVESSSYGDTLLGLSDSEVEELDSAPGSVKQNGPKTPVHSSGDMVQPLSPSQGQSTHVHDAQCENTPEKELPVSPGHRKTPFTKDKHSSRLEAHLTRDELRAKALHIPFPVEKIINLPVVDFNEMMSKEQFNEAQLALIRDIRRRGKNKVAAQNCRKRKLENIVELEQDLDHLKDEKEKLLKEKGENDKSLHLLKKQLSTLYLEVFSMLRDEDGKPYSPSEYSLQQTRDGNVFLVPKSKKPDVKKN
Description: A549 HiBiT-Nrf2 cells (Promega, Cat. No. CS3023219) were seeded into 384-well plates at cell density of 5,000 cells/well in 40 μL of cell culture medium (Ham's F-12 Nutrient Mix supplemented with 10% FBS and 1% antibiotic-antimycotic).
The next day, cells were treated with representative Compounds of the Disclosure and incubated for 6 h and 20 h at 37° C., 5% CO2. Staurosporine was used as a control.
At the end of incubation Nrf2 degradation (HiBiT readout) and cell viability (CellTiter-Glo readout) were determined. For HiBiT readout, Nano-Glo HiBiT Reagent mix (Promega, Cat. No. N3050) was added to wells, plates were incubated 2 min on an orbital shaker and incubated at room temperature in the dark for additional 30 minutes. At the end of incubation luminescence was measured using ultrasensitive luminescence mode (Envision, Perkin Elmer).

[2] = test system: A549; assay: Cancer cell viability, A549 (CellTiter-Glo); assay type: cell-based; conditions: Homo sapiens, 72 h, A549 cells, 3 days, read-out: Cellular IC50 (μM) A549
Description: Representative Compounds of the Disclosure were tested in A549 (Vendor: ATCC; Cat #CCL-185; Description: lung, carcinoma) and/or LK-2 (Vendor: Riken; Cat #RCB1970; Description: lung, squamous cell carcinoma) cellular viability assays according to the following general protocol. • 1. Observed the cells under microscope. • 2. Aspirated the media and added 5 mL trypsin and incubate for 3 mins. • 3. Added 10 mL fresh media and harvested all the cells in to 15 mL tubes. • 4. Centrifuged the cells at 1000 rpm for 5 mins. • 5. Re-suspended the cells with 11 mL media and took 1 mL to determine the cell number and viability. • 6. Prepared cells suspension at 20 K/mL (A549) or 35 K/mL (LK-2) • 7. Seeded the cells into 96-well plate and incubated for overnight. • 8. […] After 3 days, took out the plates from the incubator and observed the cells under microscope. • 10. Passed a film at the bottom of the plates. • 11. Equilibrated the plate and its contents at room temperature for approximately 30 minutes. • 12. Thawed the CellTiter-Glo® Buffer and equilibrated to room temperature prior to use. • 13. Equilibrated the lyophilized CellTiter-Glo® Substrate to room temperature prior to use. • 14. Transferred 100 ml of CellTiter-Glo® Buffer into the amber bottle containing CellTiter-Glo® Substrate to reconstituted the lyophilized enzyme/substrate mixture. • 15. Mixed by gently vortexing, swirling or inverting the contents to obtain a homogeneous solution. • 16. Added 100 μL CellTiter-Glo® Reagent into each well • 17. Mixed contents for 15 minutes on an orbital shaker to induce cell lysis. • 18. Recorded luminescence with EnSpire machine. • 19. Passed the raw data into the file and analyzed the data with XLfit software.

[3] = 6 h, read-out: DC50 (nM) at 6 h
[4] = 20 h, read-out: DC50 (nM) at 20 h

DC50 [1, 3] | DC50 [1, 4] | IC50 [2] | Compound
< 300 nM | < 300 nM | – | Cc1sc(NC(=O)Cc2cccc(OCCC(C)CCNc3cccc4c3C(=O)N(C3CCC(=O)NC3=O)C4=O)c2)nc1-c1ccc2c(c1)CCN2C(=O)C1CC1 (stereo not drawn) [Cpd. No. 41, N-(4-(1-(cyclopropanecarbonyl)indolin-5-yl)-5-methylthiazol-2-yl)-2-(3-((5-((2-(2,6-dioxopiperidin-3-yl)-1,3-dioxoisoindolin-4-yl)amino)-3-methylpentyl)oxy)phenyl)acetamide]
– | – | > 30 µM | Cc1sc(NC(=O)Cc2cccc(OCCOCCNc3cccc4c3C(=O)N(C3CCC(=O)NC3=O)C4)c2)nc1-c1ccc2c(c1)CCN2C(=O)C1CC1 (stereo not drawn) [Cpd. No. 81, N-(4-(1-(cyclopropanecarbonyl)indolin-5-yl)-5-methylthiazol-2-yl)-2-(3-(2-(2-((2-(2,6-dioxopiperidin-3-yl)-3-oxoisoindolin-4-yl)amino)ethoxy)ethoxy)phenyl) acetamide]
– | – | 0.046 µM | Cc1cnccc1C(=O)N1CCc2cc(-c3nc(NC(=O)Cc4cccc(OCCCCCNc5cccc6c5C(=O)N(C5CCC(=O)NC5=O)C6=O)c4)sc3C)ccc21 (stereo not drawn) [compound 84, 2-(3-((5-((2-(2,6-dioxopiperidin-3-yl)-1,3-dioxoisoindolin-4-yl)amino)pentyl)oxy)phenyl)-N-(5-methyl-4-(1-(3-methylisonicotinoyl)indolin-5-yl)thiazol-2-yl)acetamide]
– | – | 0.047 µM | Cc1ccncc1C(=O)N1CCc2cc(-c3nc(NC(=O)Cc4cccc(OCCCCCNc5cccc6c5C(=O)N(C5CCC(=O)NC5=O)C6=O)c4)sc3C)ccc21 (stereo not drawn) [compound 85, 2-(3-((5-((2-(2,6-dioxopiperidin-3-yl)-1,3-dioxoisoindolin-4-yl)amino)pentyl)oxy)phenyl)-N-(5-methyl-4-(1-(4-methylnicotinoyl)indolin-5-yl)thiazol-2-yl)acetamide]
– | – | 0.072 µM | Cc1cccnc1C(=O)N1CCc2cc(-c3nc(NC(=O)Cc4cccc(OCCCCCNc5cccc6c5C(=O)N(C5CCC(=O)NC5=O)C6=O)c4)sc3C)ccc21 (stereo not drawn) [compound 86, 2-(3-((5-((2-(2,6-dioxopiperidin-3-yl)-1,3-dioxoisoindolin-4-yl)amino)pentyl)oxy)phenyl)-N-(5-methyl-4-(1-(3-methylpicolinoyl)indolin-5-yl)thiazol-2-yl)acetamide]

Further lines, the compound ahead of its results:

Compound | DC50 [1, 3] | DC50 [1, 4] | IC50 [2]
Cc1sc(NC(=O)Cc2cccc(OCCC(C)(C)CCNc3cccc4c3C(=O)N(C3CCC(=O)NC3=O)C4=O)c2)nc1-c1ccc2c(c1)CCN2C(=O)C1CC1 (stereo not drawn) [Cpd. No. 42, N-(4-(1-(cyclopropanecarbonyl)indolin-5-yl)-5-methylthiazol-2-yl)-2-(3-((5-((2-(2,6-dioxopiperidin-3-yl)-1,3-dioxoisoindolin-4-yl)amino)-3,3-dimethylpentyl)oxy)phenyl)acetamide] | > 3000 nM | – | –
Cc1sc(NC(=O)Cc2cccc(OCCN(C)CCNc3cccc4c3C(=O)N(C3CCC(=O)NC3=O)C4=O)c2)nc1-c1ccc2c(c1)CCN2C(=O)C1CC1 (stereo not drawn) [Cpd. No. 44, N-(4-(1-(cyclopropanecarbonyl)indolin-5-yl)-5-methylthiazol-2-yl)-2-(3-(2-((2-((2-(2,6-dioxopiperidin-3-yl)-1,3-dioxoisoindolin-4-yl)amino)ethyl)(methyl)amino)ethoxy)phenyl)acetamide] | < 300 nM | < 300 nM | –
Cc1sc(NC(=O)Cc2cccc(OCCC(C)CCOc3cccc4c3C(=O)N(C3CCC(=O)NC3=O)C4=O)c2)nc1-c1ccc2c(c1)CCN2C(=O)C1CC1 (stereo not drawn) [Cpd. No. 47, N-(4-(1-(cyclopropanecarbonyl)indolin-5-yl)-5-methylthiazol-2-yl)-2-(3-((5-((2-(2,6-dioxopiperidin-3-yl)-1,3-dioxoisoindolin-4-yl)oxy)-3-methylpentyl)oxy)phenyl)acetamide] | 300 to 3000 nM | 300 to 3000 nM | –
Cc1sc(NC(=O)Cc2cccc(OCCC(C)(C)CCOc3cccc4c3C(=O)N(C3CCC(=O)NC3=O)C4=O)c2)nc1-c1ccc2c(c1)CCN2C(=O)C1CC1 (stereo not drawn) [Cpd. No. 48, N-(4-(1-(cyclopropanecarbonyl)indolin-5-yl)-5-methylthiazol-2-yl)-2-(3-((5-((2-(2,6-dioxopiperidin-3-yl)-1,3-dioxoisoindolin-4-yl)oxy)-3,3-dimethylpentyl)oxy)phenyl)acetamide] | > 3000 nM | 300 to 3000 nM | –
Cc1sc(NC(=O)Cc2cccc(OCCC(C)(C)CCNc3ccc4c(c3)C(=O)N(C3CCC(=O)NC3=O)C4=O)c2)nc1-c1ccc2c(c1)CCN2C(=O)C1CC1 (stereo not drawn) [Cpd. No. 51, N-(4-(1-(cyclopropanecarbonyl)indolin-5-yl)-5-methylthiazol-2-yl)-2-(3-((5-((2-(2,6-dioxopiperidin-3-yl)-1,3-dioxoisoindolin-5-yl)amino)-3,3-dimethylpentyl)oxy)phenyl)acetamide] | < 300 nM | < 300 nM | –
Cc1sc(NC(=O)Cc2cccc(OCCCCNc3cccc4c3C(=O)N(C3CCC(=O)NC3=O)C4=O)c2)nc1-c1ccc2c(c1)CCN2C(=O)C1CC1 (stereo not drawn) [Cpd. No. 65, N-(4-(1-(cyclopropanecarbonyl)indolin-5-yl)-5-methylthiazol-2-yl)-2-(3-(4-((2-(2,6-dioxopiperidin-3-yl)-1,3-dioxoisoindolin-4-yl)amino)butoxy)phenyl)acetamide] | < 300 nM | < 300 nM | 0.12 µM
Cc1sc(NC(=O)Cc2cccc(OCCCCCCNc3cccc4c3C(=O)N(C3CCC(=O)NC3=O)C4=O)c2)nc1-c1ccc2c(c1)CCN2C(=O)C1CC1 (stereo not drawn) [Cpd. No. 66, N-(4-(1-(cyclopropanecarbonyl)indolin-5-yl)-5-methylthiazol-2-yl)-2-(3-((6-((2-(2,6-dioxopiperidin-3-yl)-1,3-dioxoisoindolin-4-yl)amino)hexyl)oxy)phenyl)acetamide] | 300 to 3000 nM | < 300 nM | 0.16 µM
CC(=O)N1CCc2cc(-c3nc(NC(=O)Cc4cccc(OCCCCCNc5cccc6c5C(=O)N(C5CCC(=O)NC5=O)C6=O)c4)sc3C)ccc21 (stereo not drawn) [Cpd. No. 67, N-(4-(1-acetylindolin-5-yl)-5-methylthiazol-2-yl)-2-(3-((5-((2-(2,6-dioxopiperidin-3-yl)-1,3-dioxoisoindolin-4-yl)amino)pentyl)oxy)phenyl)acetamide] | < 300 nM | < 300 nM | 0.75 µM
Cc1sc(NC(=O)Cc2cccc(OCCC(C)CCNc3ccc4c(c3)C(=O)N(C3CCC(=O)NC3=O)C4=O)c2)nc1-c1ccc2c(c1)CCN2C(=O)C1CC1 (stereo not drawn) [compound 50, N-(4-(1-(cyclopropanecarbonyl)indolin-5-yl)-5-methylthiazol-2-yl)-2-(3-((5-((2-(2,6-dioxopiperidin-3-yl)-1,3-dioxoisoindolin-5-yl)amino)-3-methylpentyl)oxy)phenyl)acetamide] | 300 to 3000 nM | 300 to 3000 nM | –
Cc1ncccc1C(=O)N1CCc2cc(-c3nc(NC(=O)Cc4cccc(OCCCCCNc5cccc6c5C(=O)N(C5CCC(=O)NC5=O)C6=O)c4)sc3C)ccc21 (stereo not drawn) [compound 83, 2-(3-((5-((2-(2,6-dioxopiperidin-3-yl)-1,3-dioxoisoindolin-4-yl)amino)pentyl)oxy)phenyl)-N-(5-methyl-4-(1-(2-methylnicotinoyl)indolin-5-yl)thiazol-2-yl)acetamide] | – | – | 0.045 µM
